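Each compound was tested at five concentrations against cells in 96-well plates for 48 hours. GI50: concentration for 50% inhibition of growth. At the TGI there is no net growth.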
Assays:
Assay in all cases: inhibition of tumour cell growth, NCI panel, 48 h
OVCAR-3 ovarian = tested on: OVCAR-3 ovarian
UACC-257 melanoma = tested on: UACC-257 melanoma
HS 578T breast = tested on: HS 578T breast
SNB-19 CNS = tested on: SNB-19 CNS
HOP-92 NSCLC = tested on: HOP-92 NSCLC
BT-549 breast = tested on: BT-549 breast
MDA-MB-231 breast = tested on: MDA-MB-231 breast
786-0 renal = tested on: 786-0 renal
OVCAR-5 ovarian = tested on: OVCAR-5 ovarian
ACHN renal = tested on: ACHN renal

| SMILES | GI50 (OVCAR-3 ovarian) [µM] | TGI (OVCAR-3 ovarian) [µM] | GI50 (UACC-257 melanoma) [µM] | TGI (UACC-257 melanoma) [µM] | GI50 (HS 578T breast) [µM] | TGI (HS 578T breast) [µM] | GI50 (SNB-19 CNS) [µM] | TGI (SNB-19 CNS) [µM] | GI50 (HOP-92 NSCLC) [µM] | TGI (HOP-92 NSCLC) [µM] | GI50 (BT-549 breast) [µM] | TGI (BT-549 breast) [µM] | GI50 (MDA-MB-231 breast) [µM] | TGI (MDA-MB-231 breast) [µM] | GI50 (786-0 renal) [µM] | TGI (786-0 renal) [µM] | GI50 (OVCAR-5 ovarian) [µM] | TGI (OVCAR-5 ovarian) [µM] | GI50 (ACHN renal) [µM] | TGI (ACHN renal) [µM] |
| --- | --- | --- | --- | --- | --- | --- | --- | --- | --- | --- | --- | --- | --- | --- | --- | --- | --- | --- | --- | --- |
| COc1ccc(C(=O)/C=C/c2ccc(C)cc2)cc1OC | 2.55 | 12.7 | 16.2 | 30.3 | 12.5 | 30.3 | 12.8 | 25.5 | 12.6 | 27 | 14.9 | 51.5 | 14.3 | 33.1 | 15.4 | 28.7 | 16.1 | 29.6 | 14.2 | 28.1 |
| Nc1ccccc1C(=O)CC1OC(=O)c2ccccc21 (stereo not given) |  | > 100 |  | > 100 |  | > 100 |  | > 100 |  | > 100 |  | 90.5 |  | > 100 |  | > 100 |  | > 100 |  | > 100 |
| CNC(=O)c1ccc(N2CCN(Cc3ccc4nc(C)c(=O)[nH]c4c3F)CC2)c(F)n1 | > 100 | > 100 | > 100 | > 100 | 25.3 | > 100 | 34.2 | > 100 | 21.3 | > 100 | 89.6 | > 100 | 39.5 | > 100 | 47.4 | > 100 | > 100 | > 100 | > 100 | > 100 |
| OCc1ccc(-c2ccc(-c3ccc(CO)o3)[se]2)o1 | 31.3 | > 100 | 1.49 | > 20.8 | > 79 | > 100 | > 100 | > 100 | 48.2 | > 100 | 46.4 | > 100 | > 83.7 | > 100 | > 100 | > 100 | 0.629 | > 100 | > 100 | > 100 |
| C=C(C)C(=O)O[C@H]1C[C@@]23O[C@@H]2CCC(=C[C@H]2OC(=O)C(=C)[C@H]12)COC3O (stereo not given in full) |  | > 100 |  | > 100 |  | > 100 |  | > 100 |  | 53.6 |  | > 100 |  | > 100 |  | > 100 |  | > 100 |  | > 100 |
| CC(C)(C)C(=O)c1c(C(F)(F)F)n([O-])c2ccccc2[n+]1=O | 0.174 | 0.698 | 1.46 | 5.57 | 0.185 | 0.728 | 0.931 | 2.91 | 0.573 | 1.93 | 0.428 | 1.59 | 0.56 | 2.3 | 0.729 | 2.46 | 0.998 | 2.15 | 0.272 | 0.743 |
| COc1ccc2c(C)cc(N/N=C/c3ccc(OC)c4ccccc34)nc2c1 |  | 9.02 |  | 36.9 |  | 32.8 |  | 41.9 |  | 25.4 |  | 46.2 |  | 17.4 |  | 26.4 |  | 29.1 |  | 15.8 |
| Cc1nn(-c2nc3ccccc3[nH]2)c(N)c1-c1ccc(Cl)cc1 | 7.66 | > 100 | 2.63 | 55.8 | 9.24 | > 100 | 4.14 | > 100 | 3.28 | 75.4 | 12.9 | > 100 | 4.5 | > 100 | 8.31 | > 100 | 46.7 | > 100 | 4.6 | > 100 |
| CCOc1ccc2nc(SCc3nc4n(n3)S(=O)(=O)c3ccccc3N4C)sc2c1 | > 100 | > 100 | > 100 | > 100 | 45 | > 100 | > 100 | > 100 | 20.7 | 58.5 | 59.3 | > 100 | 73.1 | > 100 | > 100 | > 100 | > 100 | > 100 | > 100 | > 100 |
| COc1cc(-c2cc3ncccc3c3nc(N)c4cccnc4c23)cc(OC)c1OC | 0.229 | 2.68 | 2.08 | 44.7 | 0.692 | > 100 | 0.737 | > 100 | 9.17 | > 100 | 0.285 | 1.88 | 1.25 | > 100 | 0.511 | 10.8 | 4.98 | > 100 | 0.769 | 19.1 |
| CO[C@H]1/C=C/O[C@@]2(C)Oc3c(C)c(O)c4c(c3C2=O)C(=O)C(/C=N/N(c2ccccc2)c2ccccc2)=C(NC(=O)/C(C)=C\C=C\[C@H](C)[C@H](O)[C@@H](C)[C@@H](O)[C@@H](C)[C@H](OC(C)=O)[C@@H]1C)C4=O | 1.84 | 3.34 | 1.84 | 3.9 | 2.04 | 5.39 | 1.71 | 3.27 | 1.88 | 3.52 | 1.61 | 3.06 | 1.7 | 3.35 | 1.83 | 3.44 | 1.83 | 3.72 | 1.74 | 3.28 |
| COc1cc(OC)cc(N(CCNC(C)C)c2ccc3ncc(-c4cnn(C)c4)nc3c2)c1 | 5.6 | 20.2 | 9.49 | 23.4 | 1.49 | 6.19 | 10.9 | 24.9 | 3.32 | 15.5 | 2.78 | 17.9 | 4.63 | 18.4 | 2.9 | 13.6 | 5.42 | 19.8 | 2.18 | 8.12 |
| CCc1cccc(C)c1NC(=O)c1sc2nc3c(cc2c1N)CCCCC3 | 2.56 | 9.02 | 18.2 | > 100 | 4.87 | > 100 | 4.07 | > 100 | 13.3 | 60.3 | 5.18 | 54.9 | 4.35 | > 100 | 4.58 | > 100 | 7.74 | > 100 | 7.45 | > 100 |

— PubChem BioAssay (NCI)
